The subject of test [1] is murine and human TNBC cells. Kind of test: Reactive oxygen species. It is filed as cell-based, mouse. As to the method:
Reactive oxygen and nitrogen species. Cancer cells in suspension were washed with PBS and loaded with 50 μM H2DCFDA (Molecular Probes, Life Technologies, D399) or 5 μM DAF-2 (Cayman Chemical, Catalog #85165) for 30 min at room temperature in the dark. Cells were washed twice with PBS and treated with various doses of Ivermectin in R10 medium. Cells were incubated for 1h in 5 ml FACS tubes at 37° C. and 5% CO2, and immediately analyzed by flow cytometry. Generation of intracellular ROS and NO results in corresponding increases in the GFP fluorescence of the H2DCFDA and DAF-2 probes, respectively.

For test [2], the system named is Calreticulin (CRT) and Mannose-6 Phosphate receptor. Kind of test: Surface exposure of CRT and Mannose-6 Phosphate receptor. Type of test: cell-based, mouse, human. As to the method:
FIGS. 6A-6E. Ivermectin induces autophagy. FIG. 6A: Ivermectin induces autophagy in breast cancer cells. MDA-MB-231 GFL-LC3 cells were treated with different doses of Ivermectin for 24 h and formation of green fluorescent puncta was evaluated by confocal fluorescence microscopy. FIG. 6B: Western blot confirming the induction of autophagy in both murine and human breast cancer cells, as evidenced by LC3 lipidation and autophagic degradation of p62(SQSTM1). […] MDA-MB-231 cells (triplicates) were treated with different doses of Ivermectin for up to 24h and surface stained with antibody-specific for the human M6P receptor versus isotype control. Similarly, 4T1.2 and MB231 cells were treated with different doses of Ivermectin for 4-24 h, and were stained with an antibody specific for both human and mouse CRT versus isotype control. Mean fluorescent intensity (MFI) values and ratios versus isotype control were calculated after gating on live/membrane-intact cells. […]
Surface exposure of CRT and Mannose-6 Phosphate receptor. Surface exposure of Calreticulin (CRT) and Mannose-6 Phosphate receptor (CD220) was evaluated by staining with monoclonal antibodies specific for CRT (unconjugated, specific for both mouse and human, Abcam ab22683, and PE-conjugated, specific for human only, Abcam, ab83220) and CD220 (Thermo […]

The test system of test [3] is MDA-MB-231 breast cancer cells. Kind of test: Viability of breast cancer cells compared to normal fibroblasts. Type of test: cell-based. Particulars: MDA-MB-231 vs normal non-transformed human foreskin fibroblasts (HFFs). As to the method:
FIGS. 1A-1H. Ivermectin kills breast cancer cells through a mixed apoptotic and necrotic mechanism. FIG. 1A: Mouse (4T1.2) and human (MDA-MB-231) TNBC cells manifest similar sensitivity to Ivermectin. Viability of cells treated with various doses of Ivermectin for 24 h. FIG. 1B: Extended exposure time reduces IC50 values to as low as 2 μM. 4T1.2 cells were seeded at 100 cells/well and individual colonies were counted after a week. Cancer cells were exposed to Ivermectin during the initial 24 h or during the entire duration of the assay. FIG. 1C: MDA-MB-231 breast cancer cells manifest higher sensitivity to Ivermectin compared to normal non-transformed human foreskin fibroblasts (HFFs). FIG. 1D: Flow cytometry analysis showing that cell death proceeds through two distinct pathways: a directly necrotic 7AAD-single positive or Annexin V/PS-single positive apoptotic pathway. FIG. 1E: Kinetics of necrotic versus apoptotic killing of 4T1.2 breast cancer cells. FIG. 1F: Ivermectin-induced cell death can be reversed by inhibition of various controlled cell death pathways. […]
Cell viability. […] Following treatment the plates were washed once with PBS and cell viability was measured using the acid phosphatase assay. […] Absorption at 405 nm was measured within 10 min using a multi-well plate reader. Mode of cell death and viability of cells in suspension was evaluated using flow cytometry. […]

The test system of test [4] is 4T1.2 cells. Nature of the test: Cell viability (acid phosphatase assay) of cancer cells treated with Ivermectin. Particulars: mouse and human breast cancer cells. Type of test: cell-based, mouse. How it is done: Cell viability. Cancer cells were plated on 96 well flat-bottom plates and allowed to attach overnight. Cells were then pre-incubated with drugs for 1 h and treated with Ivermectin for 4 h. In the case of 24 h and 48 h incubations the cells, Ivermectin and drugs were plated together. All treatments and controls were done in triplicate wells and results were validated in at least two independent experiments. Following treatment the plates were washed once with PBS and cell viability was measured using the acid phosphatase assay. Briefly, cells were incubated for 1h at 37° C. in 100 μL assay buffer (0.16 M sodium acetate, 0.1% Triton-X-100, supplemented with 4-Nitrophenyl phosphate disodium salt hexahydrate, Sigma Aldrich, at 0.00263 g/ml). Reaction was stopped using 10 μL of 1N sodium hydroxide. Absorption at 405 nm was measured within 10 min using a multi-well plate reader. Mode of cell death and viability of cells in suspension was evaluated using flow cytometry. Briefly, cancer cells were pre-incubated with drugs for 30 min to 1 h, as indicated, treated with Ivermectin for 4 h in 5 ml FACS tubes , washed twice in PBS and stained with PE-conjugated Annexin V and 7AAD (1 μl per 100 μl/200,000 cancer cells) for 15 min.

With `CC[C@H](C)[C@H]1O[C@]2(CC[C@@H]1C)C[C@@H]1C[C@@H](C/C=C(\C)[C@@H](O[C@H]3C[C@H](OC)[C@@H](O[C@H]4C[C@H](OC)[C@@H](O)[C@H](C)O4)[C@H](C)O3)[C@@H](C)/C=C/C=C3\CO[C@@H]4[C@H](O)C(C)=C[C@@H](C(=O)O1)[C@]34O)O2` [Ivermectin], the “generation of ROS” value in test [1] is on record as “induces generation of ROS”. The “surface exposure of Calreticulin (CRT)” value in test [2] (4T1.2 and MB231 cells, 4-24 h) is listed as “does not significantly impact surface CRT”. Also, the “plasma membrane exposure of M6P receptors” value in test [2] (MDA-MB-231 cells, up to 24 h) is recorded as “up-regulate plasma membrane exposure of mannose-6-phosphate (M6P) receptors”. In test [3], the “sensitivity of breast cancer cells versus normal cells” value is “higher sensitivity than normal cells”. In addition, the “Ivermectin doses giving rapid killing” value in test [4] was no less than 8 µM.

Values taken from patent publication US11058700B2, “Macrocyclic lactones and uses thereof as modulators of purinergic receptors” (City of Hope, priority 2015, dated 2021).
